Nine compounds from ChEMBL document CHEMBL1201862, “PubChem BioAssay data set” (2004) can be followed below.

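Compound exposure: 48 hours, 5 concentrations, 96-well plates. GI50 marks 50% less growth.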 Active and inactive are the calls of the source. Cut-off read from the data, not from the text of the source: active = GI50 up to about 1.1 µM and inactive = higher. Starred links: 1 amine or outer side, 2 acyl side, 3 side chain; linkers in the order of their positions; H or OH if unused. Positions of bridges follow the written chain, without caps; N, C: chain ends. Non-standard residues stand in square brackets, D forms with d. Residues, ends and D or L forms follow the SMILES beside them. Chains are numbered I, II in the order given. Actinocin(1to9) = Cc1c2oc3c(C)ccc(C(=O)[*:2])c3nc-2c(C(=O)[*:1])c(N)c1=O; aThr = C[C@H](O)[C@H](N)C(=O)O; NMeV = CN[C@H](C(=O)O)C(C)C; Sar = CNCC(=O)O

Some test systems named below: RPMI-8226; U-251; NCI-H460; HOP-92; SK-MEL-28; MDA-N; SK-OV-3; A498; PC-3; SK-MEL-2; KM12; DU-145; OVCAR-8; NCI/ADR-RES; OVCAR-4; HOP-62; HCC 2998; HT-29; MCF7; OVCAR-3.
Common to all, as to assay: NCI anticancer screen, dose series, 48 h

`CC(C)(CO)CNc1cc(=O)[nH]c(N)n1`: the GI50 in the test with RPMI-8226, in the test on U-251, with NCI-H460, with HOP-92, in the test with SK-MEL-28 and with MDA-N was > 100 µM (inactive) throughout. For the same compound, the GI50 in the test on SK-OV-3, in the test with A498, in the test on PC-3, in the test on SK-MEL-2, in the test with KM12 and in the test with DU-145 was > 100 µM (inactive) throughout. The GI50 in the test on OVCAR-8, with NCI/ADR-RES, in the test with OVCAR-4, in the test on HOP-62, with HCC 2998 and with HT-29 was > 100 µM (inactive) throughout. In addition, the GI50 with MCF7 and in the test on OVCAR-3 was > 100 µM (inactive) in each case.
For `O=C1C(Cl)=CC2(C=C1Cl)CCNC1=C2C(=O)c2nc[nH]c2C1=O`, the GI50 is 30.5 µM (inactive) with RPMI-8226; 26.5 µM (inactive) with U-251; 40.3 µM (inactive) in the test with NCI-H460; 42.4 µM (inactive) with HOP-92; 33.7 µM (inactive) with SK-MEL-28; 18.5 µM (inactive) with MDA-N. For the same compound, the GI50 was > 100 µM (inactive) in the test on SK-OV-3; 36.6 µM (inactive) in the test with A498; 35.3 µM (inactive) in the test with PC-3; 17.3 µM (inactive) with SK-MEL-2; 43.4 µM (inactive) with KM12; > 100 µM (inactive) in the test with DU-145. Also, the GI50 was 32.9 µM (inactive) in the test with OVCAR-8; > 100 µM (inactive) with NCI/ADR-RES; 58.7 µM (inactive) in the test on OVCAR-4; > 100 µM (inactive) with HOP-62; 39.4 µM (inactive) in the test with HCC 2998; 29.6 µM (inactive) in the test with HT-29. The figures for the GI50 with MCF7 and in the test on OVCAR-3 were 22.3 µM (inactive) and 32.3 µM (inactive), respectively.
Turning to `Cc1c2oc3c(C)ccc(C(=O)N[C@@H]4C(=O)N[C@H](C(C)C)C(=O)N5CCC[C@H]5C(=O)N(C)CC(=O)N(C)[C@@H](C(C)C)C(=O)O[C@H]4C)c3nc-2c(C(=O)N[C@@H]2C(=O)N[C@H](C(C)C)C(=O)N3CCC[C@H]3C(=O)N(C)CC(=O)N(C)[C@@H](C(C)C)C(=O)O[C@H]2C)c(N)c1=O` (I: [aThr][dV]P[Sar][NMeV] / II: [aThr][dV]P[Sar][NMeV]; ester I:1-I:C, II:1-II:C; linker I:N-II:N via Actinocin(1to9)), the GI50 was 0.00061 µM (active) in the test on RPMI-8226; 0.000611 µM (active) with U-251; 0.000424 µM (active) in the test with NCI-H460; 0.00314 µM (active) in the test with HOP-92; 0.00139 µM (active) in the test with SK-MEL-28; 0.000631 µM (active) in the test on MDA-N. Besides, the GI50 in the test with SK-OV-3 was 0.00869 µM (active); with A498, 0.00299 µM (active); in the test on PC-3, 0.00134 µM (active); with SK-MEL-2, 0.00106 µM (active); in the test on KM12, 0.00128 µM (active); with DU-145, 0.00393 µM (active). Moreover, the GI50 with OVCAR-8 is 0.00165 µM (active); in the test on NCI/ADR-RES it was 0.098 µM (active); with OVCAR-4, 0.00583 µM (active); with HOP-62 it was 0.00217 µM (active); in the test on HCC 2998, 0.00275 µM (active); with HT-29, 0.000759 µM (active). Also, the results for the GI50 in the test on MCF7 and in the test on OVCAR-3 were 0.000189 µM (active) and 0.00361 µM (active), respectively.
For `CC(C)=CCC[C@@H](C)C1=CC(=O)C(C)=C(O)C1=O` [ISOPEREZONE], the GI50 with RPMI-8226 is 0.445 µM (active); in the test with U-251, 8.79 µM (inactive); in the test with NCI-H460 it was 16.3 µM (inactive); with HOP-92, 2.5 µM (inactive); in the test with SK-MEL-28, 11 µM (inactive); in the test on MDA-N, 4.81 µM (inactive). Further, the GI50 is 17.9 µM (inactive) in the test with SK-OV-3; 17 µM (inactive) with A498; 5.01 µM (inactive) in the test on PC-3; 9.64 µM (inactive) in the test with SK-MEL-2; 5.09 µM (inactive) with KM12; 6.08 µM (inactive) in the test with DU-145. In addition, the GI50 with OVCAR-8 is 2.15 µM (inactive); in the test with NCI/ADR-RES it was 3.19 µM (inactive); in the test on OVCAR-4, 7.1 µM (inactive); in the test on HOP-62, 12.9 µM (inactive); in the test on HCC 2998 it was 17.1 µM (inactive); with HT-29, 7.16 µM (inactive). Besides, the GI50 with MCF7 is 3.62 µM (inactive); with OVCAR-3, 4.19 µM (inactive).
Consider `Cc1ccnc(Nc2[nH]c(C(=O)c3ccc(Cl)cc3)c(N)c2C(=S)Nc2ccccc2)c1`, for which the GI50 with RPMI-8226 is 11 µM (inactive); in the test on U-251, 15.1 µM (inactive); in the test with NCI-H460, 5.82 µM (inactive); in the test on HOP-92, 17.2 µM (inactive); in the test on SK-MEL-28, 18.6 µM (inactive); in the test with MDA-N it was 15.2 µM (inactive). In addition, the GI50 with SK-OV-3 is 13.8 µM (inactive); in the test on A498, 19.1 µM (inactive); in the test with PC-3, 20.8 µM (inactive); in the test on SK-MEL-2 it was 8.59 µM (inactive); with KM12, 10 µM (inactive); with DU-145, 22.1 µM (inactive). For the same compound, the GI50 with OVCAR-8 was 12.2 µM (inactive); in the test on NCI/ADR-RES, 2.57 µM (inactive); in the test on OVCAR-4, 6.01 µM (inactive); in the test with HOP-62, 20.5 µM (inactive); in the test on HCC 2998, 14.7 µM (inactive); in the test on HT-29, 14.9 µM (inactive). Besides, the GI50 in the test on MCF7 was 9.16 µM (inactive); with OVCAR-3 it was 25.8 µM (inactive).
On to `N#Cc1c(N)n(-c2nc3ccccc3s2)c(=O)c2cc([N+](=O)[O-])ccc12`, for which the GI50 in the test with RPMI-8226 was 10.8 µM (inactive); in the test on U-251, 19.9 µM (inactive); with NCI-H460, 6.32 µM (inactive); in the test with HOP-92, 14.1 µM (inactive); with SK-MEL-28 it was 26.7 µM (inactive); in the test on MDA-N it was 25.9 µM (inactive). Moreover, the GI50 in the test with SK-OV-3 was 25.4 µM (inactive); in the test with A498, 17.1 µM (inactive); with PC-3, 5.51 µM (inactive); with SK-MEL-2, 15.4 µM (inactive); in the test on KM12, 19.7 µM (inactive); in the test with DU-145 it was 25.6 µM (inactive). In addition, the GI50 in the test with OVCAR-8 is 16.8 µM (inactive); in the test on NCI/ADR-RES, 6.46 µM (inactive); with OVCAR-4, 24.3 µM (inactive); in the test on HOP-62, 7.08 µM (inactive); in the test on HCC 2998, 9.44 µM (inactive); in the test with HT-29, 3.5 µM (inactive). The GI50 is 7.21 µM (inactive) in the test on MCF7 and 14.8 µM (inactive) in the test on OVCAR-3.
For `COc1ccc(C=C2C(C)=NN(c3cccc(Cl)c3)C23C(Cl)C(=O)N3c2nc3ccccc3s2)cc1` (stereo not given), the GI50 was 2.82 µM (inactive) in the test on RPMI-8226; 14.6 µM (inactive) in the test with U-251; 24 µM (inactive) in the test on NCI-H460; 9.02 µM (inactive) with HOP-92; 9.25 µM (inactive) with SK-MEL-28; 19.9 µM (inactive) in the test with MDA-N. In addition, the GI50 in the test on SK-OV-3 was 28.6 µM (inactive); with A498, 18.5 µM (inactive); in the test on PC-3, 17.2 µM (inactive); in the test on SK-MEL-2, 17.4 µM (inactive); with KM12, 13.6 µM (inactive); in the test with DU-145, 17.5 µM (inactive). For the same compound, the GI50 in the test with OVCAR-8 was 18.9 µM (inactive); in the test with NCI/ADR-RES, 20.3 µM (inactive); with OVCAR-4 it was 23.9 µM (inactive); in the test with HOP-62, 20 µM (inactive); in the test with HCC 2998 it was 3 µM (inactive); in the test with HT-29, 9.51 µM (inactive). Moreover, the GI50 in the test on MCF7 was 17.5 µM (inactive); in the test on OVCAR-3, 19.4 µM (inactive).
Take `COC(=O)C(C)(/N=C/c1ccccc1)c1ccccc1` (stereo not given): the GI50 in the test on RPMI-8226, in the test with U-251, with NCI-H460, in the test with HOP-92, in the test with SK-MEL-28 and in the test with MDA-N was > 100 µM (inactive) each time. The GI50 with SK-OV-3, in the test on A498, in the test with PC-3, in the test on SK-MEL-2, in the test with KM12 and with DU-145 was > 100 µM (inactive) each time. Moreover, the GI50 in the test on OVCAR-8, in the test with NCI/ADR-RES, in the test with OVCAR-4, in the test on HOP-62, in the test on HCC 2998 and with HT-29 was > 100 µM (inactive) each time. The GI50 with MCF7 and in the test on OVCAR-3 was > 100 µM (inactive) throughout.
As for `OC(Cc1cccnc1)(c1ccccc1)c1ccccc1`, the GI50 was 42.9 µM (inactive) in the test on RPMI-8226; > 100 µM (inactive) in the test on U-251; > 100 µM (inactive) in the test with NCI-H460; > 100 µM (inactive) in the test on HOP-92; > 100 µM (inactive) in the test on SK-MEL-28; 47.2 µM (inactive) with MDA-N. The GI50 is > 100 µM (inactive) in the test on SK-OV-3; > 100 µM (inactive) in the test with A498; > 100 µM (inactive) in the test on PC-3; > 100 µM (inactive) in the test with SK-MEL-2; 59.7 µM (inactive) in the test with KM12; > 100 µM (inactive) with DU-145. The GI50 in the test on OVCAR-8 was > 100 µM (inactive); in the test with NCI/ADR-RES it was 57.9 µM (inactive); in the test on OVCAR-4, > 100 µM (inactive); in the test with HOP-62 it was > 100 µM (inactive); with HCC 2998, > 100 µM (inactive); in the test with HT-29, > 100 µM (inactive). For the same compound, the GI50 in the test on MCF7 and with OVCAR-3 was > 100 µM (inactive) each time.
